Patent US11065253B2, “Arylquinazolines” (Merck Patent GmbH, priority 2013, dated 2021)
Like-named read-outs stand apart in the source and are kept apart here.

Test system: phospho-serine 2056 DNA-PK in HCT116 cells
Assay: DNA-PK phosphorylation at serine 2056 (cellular), ELISA in bleomycin-treated HCT116 cells
Type: cell-based
Details: read-out: IC50 pDNA-PK
Method in brief: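 After overnight seeding, HCT116 cells received compound with 10 μM bleomycin for 6 h; phospho-DNA-PK ELISA signals were scaled to total DNA-PKcs, DMSO serving as blank.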

[1] = Homo sapiens, HCT-116, phospho-serine 2056 DNA-PK, bleomycin-treated HCT116 cells
[2] = Homo sapiens, HCT-116, cellular DNA-PK phosphorylation at serine 2056, HCT116 cells

Structure (SMILES) | IC50 [1] [µM] | also measured
OC(c1ccc(F)c(-c2ncnc3cc(N4CCOCC4)ccc23)c1)c1nccn2cnnc12 (stereo not drawn) [Example 351, [4-Fluoro-3-(7-morpholin-4-yl-quinazolin-4-yl)-phenyl]-[1,2,4]-triazolo[4,3-a]-pyrazin-8-ylmethanol] | 10 to 30 | 
COC(c1ccc(F)c(-c2ncnc3cc(N4CCOCC4)ccc23)c1)c1nccnc1C (stereo not drawn) [Example 353, 4-{2-Fluoro-5-[methoxy-(3-methyl-pyrazin-2-yl)methyl]-phenyl}-7-morpholin-4-ylquinazoline (Ena 2)] | 10 to 30 | 
Cc1cnc(C(O)c2ccc(F)c(-c3ncnc4cc(N5CCOCC5)ccc34)c2)c(C)n1 (stereo not drawn) [Example 354, (3,5-Dimethyl-pyrazin-2-yl)-[4-fluoro-3-(7-morpholin-4-yl-quinazolin-4-yl)-phenyl]methanol] | < 0.5 | 
Cc1cnc(C(O)c2cc(-c3ncnc4cc(N5CCOCC5)ccc34)c(F)cc2F)c(C)n1 (stereo not drawn) [Example 355, [2,4-Difluoro-5-(7-morpholin-4-yl-quinazolin-4-yl)-phenyl]-(3,5-dimethyl-pyrazin-2-yl)methanol] | 0.5 to 5 | 
OC(c1ccc(F)c(-c2ncnc3cc(N4CCOCC4)ccc23)c1)c1nccn2cccc12 (stereo not drawn) [Example 356, [4-Fluoro-3-(7-morpholin-4-yl-quinazolin-4-yl)-phenyl]pyrrolo[1,2-a]-pyrazin-1-ylmethanol] | < 0.5 | 
COc1ccc(C(O)c2cc(-c3ncnc4cc(N5CCOCC5)ccc34)ccc2F)nn1 (stereo not drawn) [Example 357, [2-Fluoro-5-(7-morpholin-4-yl-quinazolin-4-yl)-phenyl]-(6-methoxy-pyridazin-3-yl)-methanol] | 0.5 to 5 | 
OC(c1cc(-c2ncnc3cc(N4CCOCC4)ccc23)c(F)cc1F)c1nccn2cccc12 (stereo not drawn) [Example 358, [2,4-Difluoro-5-(7-morpholin-4-yl-quinazolin-4-yl)-phenyl]pyrrolo[1,2-a]-pyrazin-1-ylmethanol] | < 0.5 | 
OC(c1cc(-c2ncnc3cc(N4CCOCC4)ccc23)c(F)cc1Cl)c1nccn2cccc12 (stereo not drawn) [Example 359, [2-Chloro-4-fluoro-5-(7-morpholin-4-yl-quinazolin-4-yl)-phenyl]pyrrolo[1,2-a]-pyrazin-1-ylmethanol] | < 0.5 | 
Cn1c(C(O)c2ccc(F)c(-c3ncnc4cc(N5CCOCC5)ccc34)c2)nccc1=O (stereo not drawn) [Example 360, 2-([4-Fluoro-3-(7-morpholin-4-yl-quinazolin-4-yl)-phenyl]hydroxy-methyl}-3-methyl-3H-pyrimidin-4-one] | 0.5 to 5 | 
OC(c1cc(-c2ncnc3cc(N4CCOCC4)ccc23)ccc1Cl)c1nccn2cccc12 (stereo not drawn) [Example 361, [2-Chloro-5-(7-morpholin-4-yl-quinazolin-4-yl)-phenyl]pyrrolo[1,2-a]-pyrazin-1-ylmethanol] | 0.5 to 5 | 
OC(c1cc(-c2ncnc3cc(N4CCOCC4)ccc23)ccc1Cl)c1ncnn2cccc12 (stereo not drawn) [Example 362, [2-Chloro-5-(7-morpholin-4-yl-quinazolin-4-yl)-phenyl]pyrrolo[2,1-f]-[1,2,4]triazin-4-yl-methanol] | 0.5 to 5 | 
Cn1c(C(O)c2cc(-c3ncnc4cc(N5CCOCC5)ccc34)ccc2Cl)cccc1=O (stereo not drawn) [Example 364, 6-{[2-Chloro-5-(7-morpholin-4-yl-quinazolin-4-yl)-phenyl]hydroxy-methyl}-1-methyl-1H-pyridin-2-one (Ena 1)] |  | IC50 (phospho-serine 2056 DNA-PK, bleomycin-treated HCT116 cells): < 0.5 µM
O=c1ccc(C(O)c2ccc(F)c(-c3ncnc4cc(N5CCOCC5)ccc34)c2)n[nH]1 (stereo not drawn) [Example 367, 6-{[4-Fluoro-3-(7-morpholin-4-yl-quinazolin-4-yl)phenyl]-hydroxymethyl}-2H-pyridazin-3-one] |  | IC50 [2]: 0.5 to 5 µM
Cn1c(C(O)c2cc(-c3ncnc4cc(N5CCOCC5)ccc34)c(F)cc2Cl)nccc1=O (stereo not drawn) [Example 368, 2-{[2-Chloro-4-fluoro-5-(7-morpholin-4-yl-quinazolin-4-yl)-phenyl]hydroxy-methyl}-3-methyl-3H-pyrimidin-4-one] |  | IC50 [2]: 5 to 10 µM
OC(c1cc(-c2ncnc3cc(N4CCOCC4)ccc23)ccc1Cl)c1nccn2ccnc12 (stereo not drawn) [Example 369, [2-Chloro-5-(7-morpholin-4-yl-quinazolin-4-yl)-phenyl]imidazo-[1,2-a]pyrazin-8-yl-methanol] |  | IC50 [2]: 5 to 10 µM
